Patent US12091385B2, “Pyridinylcyanoguanidine derivative and use thereof” (Rushi Biotech (Hangzhou) Co., Ltd, priority 2021, dated 2024)

Tests used:
Assay type in all cases: cell-based
[1] = tested on: Human colon cancer cell HCT-116; assay: CCK-8 cell proliferation assay, HCT-116; conditions: HCT116 cells, 72 hrs with drug, CCK-8, OD 450 nm
Procedure: (§1) The effect of samples on the proliferation of human tumor cells in vitro was determined by CCK-8 cell proliferation assay.
(§2) The cells were assayed through a method including the following steps: • 1) The cells were digested, counted, and prepared into a cell suspension in a corresponding culture medium (Table 1) (5×10^4 cells/ml for CFPAC-1 and RPMI 8226, and 3.5×10^4 cells/ml for rest cells). The cell suspension was added to each well of a 96-well plate in 100 μl/well. • 2) Then the 96-well plate was incubated for 24 hrs in an incubator at 37° C. and 5% CO2. • 3) The drug was diluted with the culture medium to the required working concentration. 100 μl of the corresponding drug containing medium was added to each well.

[2] = tested on: Human gastric cancer cell MKN45; assay: CCK-8 cell proliferation assay, MKN45; conditions: MKN-45 cells, 72 hrs with drug, CCK-8, OD 450 nm
Procedure: as §1, §2

[3] = tested on: Human esophageal cancer cell TE-1; assay: CCK-8 cell proliferation assay, TE-1; conditions: TE-1 cells, 72 hrs with drug, CCK-8, OD 450 nm
Procedure: as §1, §2

[4] = tested on: Human hepatoma cell HepG2; assay: CCK-8 cell proliferation assay, HepG2; conditions: HepG2 cells, 72 hrs with drug, CCK-8, OD 450 nm
Procedure: as §1, §2

[5] = tested on: Human lung adenocarcinoma cell A549; assay: CCK-8 cell proliferation assay, A549; conditions: A549 cells, 72 hrs with drug, CCK-8, OD 450 nm
Procedure: as §1, §2

[6] = tested on: Human pancreatic cancer cell CFPAC-1; assay: CCK-8 cell proliferation assay, CFPAC-1; conditions: CFPAC-1 cells, 72 hrs with drug, CCK-8, OD 450 nm
Procedure: as §1, §2

[7] = tested on: Human multiple myeloma cell RPMI 8226; assay: CCK-8 cell proliferation assay, RPMI 8226; conditions: RPMI8226 cells, 72 hrs with drug, CCK-8, OD 450 nm
Procedure: as §1, §2

Row | IC50 [1] | IC50 [2] | IC50 [3] | IC50 [4] | IC50 [5] | IC50 [6] | IC50 [7] | Structure (SMILES)
1 | 47 nM | 39 nM | 49 nM | 58 nM | 46 nM | 34 nM | 23 nM | N#CN=C(NCCCCCCC1CCN(C(=O)c2ccco2)C1)Nc1cccnc1 (centres unmarked) [BSS-PC062, 2-cyano-1-(6-(1-(furoyl)pyrrolidine-3-yl)hexyl)-3-(3-pyridinyl)guanidine]
2 | 57 nM | 40 nM | 39 nM | 44 nM | 29 nM | 29 nM | 24 nM | COc1cccc(OC)c1C(=O)N1CCC(CCCCCNC(=NC#N)Nc2cccnc2)C1 (centres unmarked) [BSS-PC052, 2-cyano-1-(5-(1-(2,6-dimethoxybenzoyl)pyrrolidine-3-yl)pentyl)-3-(3-pyridinyl)guanidine]
3 | 41 nM | 50 nM | 46 nM | 49 nM | 29 nM | 26 nM | 19 nM | N#CN=C(NCCCCCN1CCN(C(=O)c2ccccc2)CC1)Nc1ccncc1 [BSS-PC003]
4 | 50 nM | 41 nM | 49 nM | 51 nM | 53 nM | 37 nM | 21 nM | N#CN=C(NCCCCCN1CCN(C(=O)c2[nH]ccc2F)CC1)Nc1ccncc1 [BSS-PC024, 2-cyano-1-(5-(1-(3-fluoro-2-pyrrolylformyl)piperazine-4-yl)pentyl)-3-(4-pyridinyl)guanidine]
5 | 87 nM | 65 nM | 103 nM | 122 nM | 57 nM | 45 nM | 33 nM | N#CN=C(NCCCCCCC1CCN(C(=O)c2ccc[nH]2)C1)Nc1cccnc1 (centres unmarked) [BSS-PC061, 2-cyano-1-(6-(1-(2-pyrrolylformyl)pyrrolidine-3-yl)hexyl)-3-(3-pyridinyl)guanidine]
6 | 85 nM | 51 nM | 93 nM | 72 nM | 61 nM | 57 nM | 35 nM | N#CN=C(NCCCCCN1CCN(C(=O)c2cc3ccccc3[nH]2)CC1)Nc1ccncc1 [BSS-PC020, 2-cyano-1-(5-(1-(2-indolylformyl)piperazine-4-yl)pentyl)-3-(4-pyridinyl)guanidine]
7 | 73 nM | 52 nM | 64 nM | 83 nM | 71 nM | 46 nM | 38 nM | N#CN=C(NCCCCCN1CCN(C(=O)c2ccccc2)CC1)Nc1cccnc1 [BSS-PC019, 2-cyano-1-(5-((1-benzoyl)piperazine-4-yl)pentyl)-3-(3-pyridinyl)guanidine]
8 | 27 nM | 31 nM | 39 nM | 37 nM | 23 nM | 23 nM | 18 nM | N#CN=C(NCCCCCC1CCN(C(=O)C2CCCS2)C1)Nc1ccncc1 (centres unmarked) [BSS-PC034, 2-cyano-1-(5-(1-(2-tetrahydrothienylformyl)pyrrolidine-3-yl)pentyl)-3-(4-pyridinyl)guanidine]
9 | 76 nM | 89 nM | 125 nM | 92 nM | 73 nM | 55 nM | 34 nM | COc1cccc(OC)c1C(=O)N1CCN(CCCCCNC(=NC#N)Nc2ccncc2)CC1 [BSS-PC006, 2-cyano-1-(5-(1-(2,6-dimethoxybenzoyl)piperazine-4-yl)pentyl)-3-(4-pyridinyl)guanidine]
10 | 51 nM | 69 nM | 92 nM | 83 nM | 45 nM | 36 nM | 29 nM | N#CN=C(NCCCCCC1CCN(C(=O)c2cccs2)C1)Nc1cccnc1 (centres unmarked) [BSS-PC043, 2-cyano-1-(5-(1-(2-thienylformyl)pyrrolidine-3-yl)pentyl)-3-(3-pyridinyl)guanidine]
11 | 109 nM | 62 nM | 83 nM | 90 nM | 69 nM | 46 nM | 40 nM | N#CN=C(NCCCCCCC1CCN(C(=O)C2CCCS2)C1)Nc1cccnc1 (centres unmarked) [BSS-PC063, 2-cyano-1-(6-(1-(2-tetrahydrothienylformyl)pyrrolidine-3-yl)hexyl)-3-(3-pyridinyl)guanidine]
12 | 66 nM | 39 nM | 55 nM | 51 nM | 50 nM | 35 nM | 31 nM | N#CN=C(NCCCCCC1CCN(C(=O)c2ccccc2)C1)Nc1ccncc1 (centres unmarked) [BSS-PC028, 2-cyano-1-(5-((1-benzoyl)pyrrolidine-3-yl)pentyl)-3-(4-pyridinyl)guanidine]
13 | 58 nM | 36 nM | 72 nM | 90 nM | 28 nM | 39 nM | 25 nM | N#CN=C(NCCCCCC1CCN(C(=O)C2CCCO2)C1)Nc1ccncc1 (centres unmarked) [BSS-PC036, 2-cyano-1-(5-(1-(2-tetrahydrofuranformyl)pyrrolidine-3-yl)pentyl)-3-(4-pyridinyl)guanidine]
14 | 92 nM | 68 nM | 81 nM | 85 nM | 71 nM | 58 nM | 43 nM | N#CN=C(NCCCCCN1CCN(C(=O)C2CCCS2)CC1)Nc1ccncc1 (centres unmarked) [BSS-PC009, 2-cyano-1-(5-(1-(2-tetrahydrothienylformyl)piperazine-4-yl)pentyl)-3-(4-pyridinyl)guanidine]
15 | 53 nM | 45 nM | 46 nM | 42 nM | 33 nM | 29 nM | 26 nM | N#CN=C(NCCCCCCC1CCN(C(=O)c2ccco2)C1)Nc1cc(F)nc(F)c1 (centres unmarked) [BSS-PC076]
16 | 52 nM | 49 nM | 46 nM | 57 nM | 33 nM | 39 nM | 30 nM | N#CN=C(NCCCCCCC1CCN(C(=O)c2ccccc2)C1)Nc1ccncc1 (centres unmarked) [BSS-PC054, 2-cyano-1-(6-((1-benzoyl)pyrrolidine-3-yl)hexyl)-3-(4-pyridinyl)guanidine]
17 | 52 nM | 430 nM | 43 nM | 57 nM | 42 nM | 39 nM | 30 nM | N#CN=C(NCCCCCN1CCN(C(=O)c2occc2F)CC1)Nc1ccncc1 [BSS-PC023, 2-cyano-1-(5-(1-(3-fluoro-2-furylformyl)piperazine-4-yl)pentyl)-3-(4-pyridinyl)guanidine]
18 | 74 nM | 61 nM | 83 nM | 85 nM | 71 nM | 42 nM | 45 nM | N#CN=C(NCCCCCC1CCN(C(=O)C2Cc3ccccc3O2)C1)Nc1ccncc1 (centres unmarked) [BSS-PC046, 2-cyano-1-(5-(1-(2-benzotetrahydrofurylfuryl)pyrrolidine-3-yl)pentyl)-3-(4-pyridinyl)guanidine]
19 | 87 nM | 33 nM | 52 nM | 68 nM | 39 nM | 41 nM | 32 nM | N#CN=C(NCCCCCC1CCN(C(=O)c2sccc2F)C1)Nc1ccncc1 (centres unmarked) [BSS-PC050, 2-cyano-1-(5-(1-(3-fluoro-2-thienylformyl)pyrrolidine-3-yl)pentyl)-3-(4-pyridinyl)guanidine]
20 | 66 nM | 43 nM | 95 nM | 82 nM | 35 nM | 25 nM | 34 nM | N#CN=C(NCCCCCN1CCN(C(=O)c2cccs2)CC1)Nc1ccncc1 [BSS-PC004, 2-cyano-1-(5-(1-(2-thienylformyl)piperazine-4-yl)pentyl)-3-(4-pyridinyl)guanidine]
21 | 60 nM | 34 nM | 51 nM | 47 nM | 42 nM | 36 nM | 33 nM | N#CN=C(NCCCCCC1CCN(C(=O)c2occc2F)C1)Nc1ccncc1 (centres unmarked) [BSS-PC048, 2-cyano-1-(5-(1-(3-fluoro-2-furylformyl)pyrrolidine-3-yl)pentyl)-3-(4-pyridinyl)guanidine]
22 | 33 nM | 41 nM | 79 nM | 86 nM | 32 nM | 16 nM | 27 nM | N#CN=C(NCCCCCC1CCN(C(=O)C2CCCN2)C1)Nc1ccncc1 (centres unmarked) [BSS-PC035, 2-cyano-1-(5-(1-(2-pyrrolidinylformyl)pyrrolidine-3-yl)pentyl)-3-(4-pyridinyl)guanidine]
23 | 49 nM | 37 nM | 94 nM | 109 nM | 42 nM | 27 nM | 23 nM | COc1cccc(OC)c1C(=O)N1CCC(CCCCCNC(=NC#N)Nc2ccncc2)C1 (centres unmarked) [BSS-PC031, 2-cyano-1-(5-(1-(2,6-dimethoxybenzoyl)pyrrolidine-3-yl)pentyl)-3-(4-pyridinyl)guanidine]
